Data: patent US20240317744A1, “Bicyclic Ureas As Kinase Inhibitors” (Incyte Corporation, priority 2023, published 2024)

How the values were obtained:
[1] = biological target: T1, catalytic domain (JH1, amino acids 826-1132) of human JAK2 (Homo sapiens, UniProt O60674); assay: JAK2 LanthaScreen JH1 Binding Assay; conditions: JAK2 JH1 1.5 nM, 50 nM tracer, 2 hours at 25° C.; read-out: JH1 BIND
T1 construct: catalytic domain (JH1, amino acids 826-1132) of human JAK2; FLAG (N); biotin (biotinylated); purchased Carna Biosciences 08-445-20N; host or cells: baculovirus expression system
T1 sequence (O60674 826-1132): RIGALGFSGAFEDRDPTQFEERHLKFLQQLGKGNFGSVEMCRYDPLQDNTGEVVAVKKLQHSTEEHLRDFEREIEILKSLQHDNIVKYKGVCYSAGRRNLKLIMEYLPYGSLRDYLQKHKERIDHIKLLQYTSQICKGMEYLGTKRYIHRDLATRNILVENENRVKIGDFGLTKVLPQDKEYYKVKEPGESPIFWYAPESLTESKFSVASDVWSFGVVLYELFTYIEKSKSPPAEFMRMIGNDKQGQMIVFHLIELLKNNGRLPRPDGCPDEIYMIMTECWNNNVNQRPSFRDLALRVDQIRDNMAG
Protocol: Example A. JAK2 LanthaScreen JH1 Binding Assay
JAK2 JH1 binding assay utilizes catalytic domain (JH1, amino acids 826-1132) of human JAK2 expressed as N-terminal FLAG-tagged, biotinylated protein in a baculovirus expression system (Carna Biosciences, Product #08-445-20N). The assay was conducted in black 384-well polystyrene plates in a final reaction volume of 20 μL. JAK2 JH1 (1.5 nM) was incubated with compounds (100 nL serially diluted in DMSO) in the presence of 50 nM fluorescent JAK2-JH1 tracer and 0.5 nM Streptavidin-Tb cryptate (Cisbio Part #610SATLB) in assay buffer (50 mM Tris, pH=7.5, 10 mM MgCl2, 0.01% Brij-35, 0.1% BSA, 1 mM EGTA, 5% Glycerol and 5 mM DTT). Non-specific binding was accessed in the presence of 2 mM ATP. After incubation for 2 hours at 25° C., LanthaScreen signals were read on a PHERAstar FS plate reader (BMG LABTECH). Data was analyzed with IDBS XLfit and GraphPad Prism 5.0 software using a four parameter dose response curve to determine IC50 for each compound.

[2] = biological target: T2, pseudo-kinase domain (JH2, amino-acids 536-812) of human Wild Type JAK2 (Homo sapiens, UniProt O60674, F794H/W659A/W777A); assay: JAK2 LanthaScreen JH2-WT Binding Assay; conditions: JAK2 JH2-WT 0.145 nM, 50 nM tracer, 1 hour at 25° C.; read-out: JH2 BIND WT
T2 construct: pseudo-kinase domain (JH2, amino-acids 536-812 with 3 surface mutations W659A, W777A, F794H); His (C); purchased BPS Bioscience 79463; host or cells: baculovirus expression system
T2 sequence (O60674 536-812 W659A/W777A/F794H): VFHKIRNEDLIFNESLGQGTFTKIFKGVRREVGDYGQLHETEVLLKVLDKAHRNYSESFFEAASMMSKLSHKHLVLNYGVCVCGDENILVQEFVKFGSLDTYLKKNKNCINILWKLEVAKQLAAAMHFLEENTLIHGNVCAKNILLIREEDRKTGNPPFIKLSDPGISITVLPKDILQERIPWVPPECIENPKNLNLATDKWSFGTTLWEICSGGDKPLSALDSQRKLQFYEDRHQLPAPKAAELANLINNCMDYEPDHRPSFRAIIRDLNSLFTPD
Protocol: Example B. JAK2 LanthaScreen JH2-WT Binding Assay
JAK2 JH2-WT binding assay utilizes pseudo-kinase domain (JH2, amino-acids 536-812 with 3 surface mutations W659A, W777A, F794H) of human Wild Type JAK2 expressed as C-terminal His-Avi-tagged, biotinylated protein in a baculovirus expression system (BPS Bioscience, Catalog #79463). The assay was conducted in black 384-well polystyrene plates in a final reaction volume of 20 μL. JAK2 JH2-WT (0.145 nM) was incubated with compounds (100 nL serially diluted in DMSO) in the presence of 50 nM Fluorescent JAK2-JH2 Tracer (MedChem Express Catalog #HY-102055) and 0.25 nM Streptavidin-Tb cryptate (Cisbio Part #610SATLB) in assay buffer (50 mM Tris, pH=7.5, 10 mM MgCl2, 0.01% Brij-35, 0.1% BSA, 1 mM EGTA, 5% Glycerol and 5 mM DTT). Non-specific binding was accessed in the presence of 2 mM ATP. After incubation for 1 hour at 25° C., LanthaScreen signals were read on a PHERAstar FS plate reader (BMG LABTECH). Data was analyzed with IDBS XLfit and GraphPad Prism 5.0 software using a four parameter dose response curve to determine IC50 for each compound.

[3] = biological target: T3, pseudo-kinase domain (JH2, amino-acids 536-812) of human V617F mutant JAK2 (Homo sapiens, UniProt O60674, F794H/V617F/W659A/W777A); assay: JAK2 LanthaScreen JH2-V617F Binding Assay; conditions: JAK2 JH2-V617F 0.26 nM, 50 nM tracer, 1 hour at 25° C.; read-out: JH2 BIND V617F
T3 construct: pseudo-kinase domain (JH2, amino-acids 536-812 with 3 surface mutations W659A, W777A, F794H); His (C); purchased BPS Bioscience 79498; host or cells: baculovirus expression system
T3 sequence (O60674 536-812 V617F/W659A/W777A/F794H): as the sequence (O60674 536-812 W659A/W777A/F794H) above, with V82F counted along it
How it was run: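 Serially diluted compounds are mixed with 0.26 nM protein, 50 nM fluorescent JAK2-JH2 tracer and 0.25 nM terbium-labelled streptavidin, then incubated 1 h at 25° C. LanthaScreen signal is read, and IC50 is fitted.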

[4] = biological target: catalytic domain (JH1, amino acids 808-1132) of human JAK2 (Homo sapiens, UniProt O60674); assay: JAK2 HTRF Enzyme Activity Assay; assay type: biochemical; conditions: ATP 30 µM, 60 minutes at 25° C.; read-out: V617F ENZ 30 UM
Chain of catalytic domain (JH1, amino acids 808-1132) of human JAK2 (O60674 808-1132 limits assumed): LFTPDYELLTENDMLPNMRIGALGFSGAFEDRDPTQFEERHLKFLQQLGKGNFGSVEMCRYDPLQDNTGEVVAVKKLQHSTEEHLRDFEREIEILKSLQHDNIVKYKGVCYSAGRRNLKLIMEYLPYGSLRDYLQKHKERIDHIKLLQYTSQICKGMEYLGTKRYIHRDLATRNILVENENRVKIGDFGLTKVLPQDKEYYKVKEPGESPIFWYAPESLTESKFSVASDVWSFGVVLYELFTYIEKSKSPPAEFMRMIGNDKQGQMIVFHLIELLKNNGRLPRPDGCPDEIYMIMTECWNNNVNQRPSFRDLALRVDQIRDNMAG

## COC(=O)N[C@@H]1CC[C@@H](n2c(=O)n(C)c3cnc(Nc4cccc(-c5ccc6[nH]nc(C)c6c5)n4)cc32)C1 [Example 7, Methyl ((1R,3R)-3-(3-methyl-6-((6-(3-methyl-1H-indazol-5-yl)pyridin-2-yl)amino)-2-oxo-2,3-dihydro-1H-imidazo[4,5-c]pyridin-1-yl)cyclopentyl)carbamate]
[1]
  IC50: > 1 µM
[2]
  IC50: ≤ 0.01 µM
[3]
  IC50: 0.01 to 0.1 µM
[4]
  IC50: > 1 µM

## COC(=O)N[C@@H]1CC[C@@H](n2c(=O)n(C)c3cnc(Nc4cccc(-c5ccc6c(c5)OCCO6)n4)cc32)C1 [Example 8, Methyl ((1R,3R)-3-(6-((6-(2,3-dihydrobenzo[b][1,4]dioxin-6-yl)pyridin-2-yl)amino)-3-methyl-2-oxo-2,3-dihydro-1H-imidazo[4,5-c]pyridin-1-yl)cyclopentyl)carbamate]
[1]
  IC50: > 1 µM
[2]
  IC50: ≤ 0.01 µM
[3]
  IC50: ≤ 0.01 µM
[4]
  IC50: > 1 µM

## COC(=O)N[C@@H]1CC[C@@H](n2c(=O)n(C)c3cnc(Nc4cccc(-c5ccc6ncccc6c5)n4)cc32)C1 [Example 9, Methyl ((1R,3R)-3-(3-methyl-2-oxo-6-((6-(quinolin-6-yl)pyridin-2-yl)amino)-2,3-dihydro-1H-imidazo[4,5-c]pyridin-1-yl)cyclopentyl)carbamate]
[1]
  IC50: > 1 µM
[2]
  IC50: ≤ 0.01 µM
[3]
  IC50: ≤ 0.01 µM
[4]
  IC50: > 1 µM

## [2H]C([2H])([2H])n1c(=O)n([C@@H]2CC[C@@H](NC(=O)OC)C2)c2cc(Nc3cc(C(=O)N4CC5CC5(O)C4)c4cccc(C(F)(F)F)c4n3)ncc21 (stereo partly drawn) [Example 10, Methyl ((1R,3R)-3-(6-((4-(1-hydroxy-3-azabicyclo[3.1.0]hexane-3-carbonyl)-8-(trifluoromethyl)quinolin-2-yl)amino)-3-(methyl-d3)-2-oxo-2,3-dihydro-1H-imidazo[4,5-c]pyridin-1-yl)cyclopentyl)carbamate]
[1]
  IC50: 0.5 to 1 µM
[2]
  IC50: ≤ 0.01 µM
[3]
  IC50: ≤ 0.01 µM
[4]
  IC50: 0.1 to 0.5 µM

## COC(=O)N[C@@H]1CC[C@@H](n2c(=O)n(C)c3cnc(Nc4cccc(-c5ccc6c(c5)OCCN6C)n4)cc32)C1 [Example 11, Methyl ((1R,3R)-3-(3-methyl-6-((6-(4-methyl-3,4-dihydro-2H-benzo[b][1,4]oxazin-7-yl)pyridin-2-yl)amino)-2-oxo-2,3-dihydro-1H-imidazo[4,5-c]pyridin-1-yl)cyclopentyl)carbamate]
[1]
  IC50: > 1 µM
[2]
  IC50: ≤ 0.01 µM
[3]
  IC50: ≤ 0.01 µM
[4]
  IC50: > 1 µM

## [2H]C([2H])([2H])n1c(=O)n([C@@H]2CC[C@@H](NC(=O)OC)C2)c2cc(Nc3cc(C(=O)N4CC5CC4CO5)c4cccc(C(F)(F)F)c4n3)ncc21 (stereo partly drawn) [Example 12, Methyl ((1R,3R)-3-(6-((4-(2-oxa-5-azabicyclo[2.2.1]heptane-5-carbonyl)-8-(trifluoromethyl)quinolin-2-yl)amino)-3-(methyl-d3)-2-oxo-2,3-dihydro-1H-imidazo[4,5-c]pyridin-1-yl)cyclopentyl)carbamate]
[1]
  IC50: > 1 µM
[2]
  IC50: ≤ 0.01 µM
[3]
  IC50: ≤ 0.01 µM
[4]
  IC50: > 1 µM

## [2H]C([2H])([2H])n1c(=O)n([C@@H]2CC[C@@H](NC(=O)OC)C2)c2cc(Nc3cc(C(=O)N4CCOC5CC54)c4cccc(C(F)(F)F)c4n3)ncc21 (stereo partly drawn) [Example 13, Methyl ((1R,3R)-3-(6-((4-(2-oxa-5-azabicyclo[4.1.0]heptane-5-carbonyl)-8-(trifluoromethyl)quinolin-2-yl)amino)-3-(methyl-d3)-2-oxo-2,3-dihydro-1H-imidazo[4,5-c]pyridin-1-yl)cyclopentyl)carbamate]
[1]
  IC50: 0.5 to 1 µM
[2]
  IC50: ≤ 0.01 µM
[3]
  IC50: ≤ 0.01 µM
[4]
  IC50: 0.5 to 1 µM

## COC(=O)Nc1cc(Nc2cc3c(cn2)n(C)c(=O)n3[C@@H]2CC[C@@H](NC(=O)OC)C2)cc(-c2cn(C)nn2)c1 [Example 14, Methyl (3-((1-((1R,3R)-3-((methoxycarbonyl)amino)cyclopentyl)-3-methyl-2-oxo-2,3-dihydro-1H-imidazo[4,5-c]pyridin-6-yl)amino)-5-(1-methyl-1H-1,2,3-triazol-4-yl)phenyl)carbamate]
[1]
  IC50: > 1 µM
[2]
  IC50: ≤ 0.01 µM
[3]
  IC50: 0.01 to 0.1 µM
[4]
  IC50: > 1 µM

## COC(=O)Nc1cc(Nc2cc3c(cn2)n(C)c(=O)n3[C@@H]2CC[C@@H](NC(=O)OC)C2)cc(C2CCN(C)CC2)c1 [Example 15, Methyl (3-((1-((1R,3R)-3-((methoxycarbonyl)amino)cyclopentyl)-3-methyl-2-oxo-2,3-dihydro-1H-imidazo[4,5-c]pyridin-6-yl)amino)-5-(1-methylpiperidin-4-yl)phenyl)carbamate]
[1]
  IC50: > 1 µM
[2]
  IC50: ≤ 0.01 µM
[3]
  IC50: 0.01 to 0.1 µM
[4]
  IC50: > 1 µM

## [2H]C([2H])([2H])n1c(=O)n([C@@H]2CC[C@@H](NC(=O)OC)C2)c2cc(Nc3cc(C(=O)N4CCCC(F)(F)C4)c4cccc(C(F)(F)F)c4n3)ncc21 [Example 16, Methyl ((1R,3R)-3-(6-((4-(3,3-difluoropiperidine-1-carbonyl)-8-(trifluoromethyl)quinolin-2-yl)amino)-3-(methyl-d3)-2-oxo-2,3-dihydro-1H-imidazo[4,5-c]pyridin-1-yl)cyclopentyl)carbamate]
[1]
  IC50: > 1 µM
[2]
  IC50: ≤ 0.01 µM
[3]
  IC50: ≤ 0.01 µM
[4]
  IC50: > 1 µM

## COC(=O)N[C@@H]1CC[C@@H](n2c(=O)n(C)c3cnc(Nc4cc(NC(=O)[C@H]5CC5(F)F)cc(C5CCOCC5)c4)cc32)C1 [Example 17, Methyl ((1R,3R)-3-(6-((3-((R)-2,2-difluorocyclopropane-1-carboxamido)-5-(tetrahydro-2H-pyran-4-yl)phenyl)amino)-3-methyl-2-oxo-2,3-dihydro-1H-imidazo[4,5-c]pyridin-1-yl)cyclopentyl)carbamate]
[1]
  IC50: > 1 µM
[2]
  IC50: ≤ 0.01 µM
[3]
  IC50: ≤ 0.01 µM
[4]
  IC50: > 1 µM

## [2H]C([2H])([2H])n1c(=O)n([C@@H]2CC[C@@H](NC(=O)OC)C2)c2cc(Nc3ccc4cc(NC5CCC(F)(F)C5)cc(C(F)(F)F)c4n3)ncc21 (stereo partly drawn) [Example 18, Methyl ((1R,3R)-3-(6-((6-((3,3-difluorocyclopentyl)amino)-8-(trifluoromethyl)quinolin-2-yl)amino)-3-(methyl-d3)-2-oxo-2,3-dihydro-1H-imidazo[4,5-c]pyridin-1-yl)cyclopentyl)carbamate]
[1]
  IC50: > 1 µM
[2]
  IC50: ≤ 0.01 µM
[3]
  IC50: ≤ 0.01 µM
[4]
  IC50: > 1 µM

## COC(=O)N[C@@H]1CC[C@@H](n2c(=O)n(C)c3cnc(Nc4cc(NC(=O)C5CCC5)cc(C5CCOCC5)c4)cc32)C1 [Example 19, Methyl ((1R,3R)-3-(6-((3-(cyclobutanecarboxamido)-5-(tetrahydro-2H-pyran-4-yl)phenyl)amino)-3-methyl-2-oxo-2,3-dihydro-1H-imidazo[4,5-c]pyridin-1-yl)cyclopentyl)carbamate]
[1]
  IC50: > 1 µM
[2]
  IC50: ≤ 0.01 µM
[3]
  IC50: ≤ 0.01 µM
[4]
  IC50: > 1 µM
